Measurements as given in patent US8592456B2 (4SC Discovery GmbH, priority 2011, dated 2013).

system: PBMC (T cell proliferation); assay: T cell proliferation assay, PHA-stimulated human PBMC (BrdU ELISA); assay type: cell-based; conditions: PHA-stimulated human PBMC, 48 hours, BrdU; column D; activity classes 1-4; read-out: IC50 (Tcell proliferation)
Method in brief: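 BrdU ELISA readout of proliferation at 48 hours. Cells: human PBMC from healthy donors in 10% dialyzed FCS/RPMI1640, 1×10^5 per well, activated by 2 μg/ml phytohaemagglutinin in the presence of compound.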

Compound | IC50 [nM]
Fc1cccc(-n2ncc(-c3onc(-c4c(F)cccc4Cl)c3-c3ccoc3)c2C(F)(F)F)c1 [Example I-13, 3-(2-chloro-6-fluorophenyl)-5-(1-(3-fluorophenyl)-5-(trifluoromethyl)-1H-pyrazol-4-yl)-4-(furan-3-yl)isoxazole] | 1000 to 10000
Fc1cccc(Cl)c1-c1noc(-c2cnn(-c3cccnc3)c2C(F)(F)F)c1-c1cnco1 [IB-32, 3-(2-chloro-6-fluorophenyl)-4-(oxazol-5-yl)-5-(1-(pyridin-3-yl)-5-(trifluoromethyl)-1H-pyrazol-4-yl)isoxazole] | 1000 to 10000
Cc1nnc(-c2c(-c3c(F)cccc3Cl)noc2-c2cnn(-c3cccc(S(N)(=O)=O)c3)c2C(F)(F)F)s1 [IB-23, 3-(4-(3-(2-chloro-6-fluorophenyl)-4-(5-methyl-1,3,4-thiadiazol-2-yl)isoxazol-5-yl)-5-(trifluoromethyl)-1H-pyrazol-1-yl)benzenesulfonamide] | 1000 to 10000
COc1cccc(Cl)c1-c1noc(-c2cnn(-c3cccnc3)c2C(F)(F)F)c1-c1cnco1 [IB-31, 3-(2-chloro-6-methoxyphenyl)-4-(oxazol-5-yl)-5-(1-(pyridin-3-yl)-5-(trifluoromethyl)-1H-pyrazol-4-yl)isoxazole] | 1000 to 10000
Fc1ccccc1-n1ncc(-c2onc(-c3c(F)cccc3Cl)c2-c2ccoc2)c1C(F)(F)F [IB-9, 3-(2-chloro-6-fluorophenyl)-5-(1-(2-fluorophenyl)-5-(trifluoromethyl)-1H-pyrazol-4-yl)-4-(furan-3-yl)isoxazole] | 100 to 1000

same assay, conditions: human PBMC, 2 μg/ml PHA, 48 hours, BrdU; read-out: D: IC50 (Tcell proliferation)

Compound | IC50 [nM]
CN1CCN(C(=O)c2c(-c3c(F)cccc3Cl)noc2-c2cnn(-c3cccc(Cl)c3)c2C(F)(F)F)CC1 [Example B-34, (3-(2-chloro-6-fluorophenyl)-5-(1-(3-chlorophenyl)-5-(trifluoromethyl)-1H-pyrazol-4-yl)-isoxazol-4-yl)(4-methylpiperazin-1-yl)methanone] | 100 to 1000
COC(=O)c1c(-c2c(F)cccc2Cl)noc1-c1cnn(-c2nccc(C(F)(F)F)n2)c1C(F)(F)F [Example 67, methyl 3-(2-chloro-6-fluorophenyl)-5-(5-(trifluoromethyl)-1-(4-(trifluoromethyl)pyrimidin-2-yl)-1H-pyrazol-4-yl)isoxazole-4-carboxylate] | 100 to 1000
COC(=O)c1c(-c2c(F)cccc2Cl)noc1-c1cnn(-c2ccc(Cl)cc2Cl)c1C(F)(F)F [Example 7, methyl 3-(2-chloro-6-fluorophenyl)-5-(1-(2,4-dichlorophenyl)-5-(trifluoromethyl)-1H-pyrazol-4-yl)isoxazole-4-carboxylate] | 1000 to 10000
COC(=O)c1c(-c2c(F)cccc2Cl)noc1-c1cnn(-c2ccccn2)c1C(F)(F)F [Example 84, methyl 3-(2-chloro-6-fluorophenyl)-5-(1-(pyridin-2-yl)-5-(trifluoromethyl)-1H-pyrazol-4-yl)isoxazole-4-carboxylate] | < 10
COC(=O)c1c(-c2c(F)cccc2Cl)noc1-c1cnn(CC(F)(F)F)c1C(F)(F)F [Example 65, methyl 3-(2-chloro-6-fluorophenyl)-5-(1-(2,2,2-trifluoroethyl)-5-(trifluoromethyl)-1H-pyrazol-4-yl)isoxazole-4-carboxylate] | 10 to 100
CCOC(=O)c1c(-c2c(F)cccc2Cl)noc1-c1cnn(-c2ccccc2F)c1C(F)(F)F [Example 42, Ethyl 3-(2-chloro-6-fluorophenyl)-5-[1-(2-fluorophenyl)-5-(trifluoromethyl)-1H-pyrazol-4-yl]isoxazole-4-carboxylate] | 10 to 100
O=C(c1c(-c2c(F)cccc2Cl)noc1-c1cnn(-c2ccccc2F)c1C(F)(F)F)N1CCOCC1 [Example 16, (3-(2-chloro-6-fluorophenyl)-5-(1-(2-fluorophenyl)-5-(trifluoromethyl)-1H-pyrazol-4-yl)isoxazol-4-yl)(morpholino)methanone] | 1000 to 10000
COC(=O)c1c(-c2c(F)cccc2Cl)noc1-c1cnn(-c2cc(Cl)cc(Cl)c2)c1C(F)(F)F [Example 68, methyl 3-(2-chloro-6-fluorophenyl)-5-(1-(3,5-dichlorophenyl)-5-(trifluoromethyl)-1H-pyrazol-4-yl)isoxazole-4-carboxylate] | 10 to 100
COC(=O)c1c(-c2c(Cl)cccc2Cl)noc1-c1cnn(-c2cccc(F)c2)c1C(F)(F)F [Example 109, methyl 3-(2,6-dichlorophenyl)-5-(1-(3-fluorophenyl)-5-(trifluoromethyl)-1H-pyrazol-4-yl)isoxazole-4-carboxylate] | < 10
CCOC(=O)c1c(-c2onc(-c3c(F)cccc3Cl)c2C(=O)OC)cnn1-c1ccc(F)cc1 [Example 26, methyl 3-(2-chloro-6-fluorophenyl)-5-(5-(ethoxycarbonyl)-1-(4-fluorophenyl)-1H-pyrazol-4-yl)isoxazole-4-carboxylate] | 1000 to 10000
CCOC(=O)c1c(-c2c(Cl)cncc2Cl)noc1-c1cnn(-c2cccnc2)c1C(F)(F)F [Example B-12, ethyl 3-(3,5-dichloropyridin-4-yl)-5-(1-(pyridin-3-yl)-5-(trifluoromethyl)-1H-pyrazol-4-yl)isoxazole-4-carboxylate] | 100 to 1000
COC(=O)c1c(-c2c(F)cccc2Cl)noc1-c1cnn(C(C)C)c1C(F)(F)F [Example 66, methyl 3-(2-chloro-6-fluorophenyl)-5-(1-isopropyl-5-(trifluoromethyl)-1H-pyrazol-4-yl)isoxazole-4-carboxylate] | 1000 to 10000
CCOC(=O)c1c(-c2c(F)cccc2Cl)noc1-c1cnn(-c2cccc(S(N)(=O)=O)c2)c1C(F)(F)F [Example B-43, ethyl 3-(2-chloro-6-fluorophenyl)-5-(1-(3-sulfamoylphenyl)-5-(trifluoromethyl)-1H-pyrazol-4-yl)-isoxazole-4-carboxylate] | 1000 to 10000
CSC(=O)c1c(-c2c(F)cccc2Cl)noc1-c1cnn(-c2cccc(Cl)c2)c1C(F)(F)F [Example 126, S-methyl 3-(2-chloro-6-fluorophenyl)-5-(1-(3-chlorophenyl)-5-(trifluoromethyl)-1H-pyrazol-4-yl)isoxazole-4-carbothioate] | < 10
CCOC(=O)c1c(-c2onc(-c3c(F)cccc3Cl)c2C(=O)OC)cnn1-c1cccc(F)c1 [Example 8, methyl 3-(2-chloro-6-fluorophenyl)-5-(5-(ethoxycarbonyl)-1-(3-fluorophenyl)-1H-pyrazol-4-yl)isoxazole-4-carboxylate] | 100 to 1000
CCOC(=O)c1c(-c2onc(-c3c(F)cccc3Cl)c2C(=O)OC)cnn1-c1cccc(Cl)c1Cl [Example 9, methyl 3-(2-chloro-6-fluorophenyl)-5-(1-(2,3-dichlorophenyl)-5-(ethoxycarbonyl)-1H-pyrazol-4-yl)isoxazole-4-carboxylate] | 1000 to 10000
CCOC(=O)c1c(-c2ccncc2F)noc1-c1cnn(-c2ccccc2F)c1C(F)(F)F [Example B-15, ethyl 5-(1-(2-fluorophenyl)-5-(trifluoromethyl)-1H-pyrazol-4-yl)-3-(3-fluoropyridin-4-yl)isoxazole-4-carboxylate] | 100 to 1000
CCOC(=O)c1c(-c2c(Cl)cncc2Cl)noc1-c1cnn(-c2ccncc2)c1C(F)(F)F [Example B-10, ethyl 3-(3,5-dichloropyridin-4-yl)-5-(1-(pyridin-4-yl)-5-(trifluoromethyl)-1H-pyrazol-4-yl)isoxazole-4-carboxylate] | 100 to 1000
